Peptide text beside a SMILES is read from it.
Biological target: T1, hMC4-R (Homo sapiens (Human), UniProt P32245)
Assay: Assay for agonist activity: cAMP accumulation in HEK-293 cells that express hMC4-R
Details: agonist = intrinsic activity 70% or higher; partial agonist 10-70%
Protocol: By “intrinsic activity” is meant the maximal functional activity achievable by a compound in a specified melanocortin receptor expressing cell system, such as the maximal stimulation of adenylyl cyclase.
Accumulation of intracellular cAMP was examined as a measure of the ability of the peptides of the present invention to elicit a functional response in HEK-293 cells that express MC4-R. Confluent HEK-293 cells that express recombinant hMC4-R were detached from culture plates by incubation in enzyme-free cell dissociation buffer. Dispersed cells were suspended in Earle's Balanced Salt Solution containing 10 mM HEPES (pH 7.5), 1 mM MgCl2, 1 mM glutamine, 0.5% albumin and 0.3 mM 3-isobutyl-1-methyl-xanthine (IBMX), a phosphodiesterase inhibitor. […] Cells were exposed for 15 minutes at 37° C. to peptides of the present invention dissolved in DMSO (final DMSO concentration of 1%) at a concentration range of 0.05-5000 nM in a total assay volume of 200 μL. […] Data analysis was performed by nonlinear regression analysis with Graph-Pad Prism® software. The maximum efficacies of the test peptides of the present invention were compared to that achieved by the reference melanocortin agonist NDP-αMSH.

T1 sequence (P32245 whole entry): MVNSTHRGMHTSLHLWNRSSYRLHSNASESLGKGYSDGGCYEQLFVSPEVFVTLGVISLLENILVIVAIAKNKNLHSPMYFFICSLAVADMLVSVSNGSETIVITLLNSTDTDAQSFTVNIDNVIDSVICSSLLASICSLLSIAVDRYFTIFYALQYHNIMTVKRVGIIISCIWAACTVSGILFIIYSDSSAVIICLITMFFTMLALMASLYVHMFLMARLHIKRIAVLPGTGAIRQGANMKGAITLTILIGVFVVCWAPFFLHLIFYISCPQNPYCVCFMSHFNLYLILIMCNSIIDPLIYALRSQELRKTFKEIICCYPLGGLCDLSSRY

Row | functional status at MC4-R (agonist / partial agonist) | Compound
1 | agonist | CC(=O)N[C@@H](CCCNC(=N)N)C(=O)N[C@H]1CCNC(=O)CCC[C@@H](C(N)=O)NC(=O)[C@H](Cc2c[nH]c3ccccc23)NC(=O)[C@H](CCCNC(=N)N)NC(=O)[C@@H](Cc2ccccc2)NC(=O)[C@H](Cc2c[nH]cn2)NC1=O [compound 128, Ac-Arg-cyclo(Dab-His- D-Phe-Arg-Trp-hGlu)- NH2]

Biological target: T1, hMC4-R
Assay: Competitive binding assay using Eu-NDP-α-MSH (TRF), hMC4-R membranes
Details: averaged; Eu-NDP-α-MSH (values marked *); read-out: MC4-R Ki
Protocol: Alternatively, a competitive inhibition binding assay was performed employing Eu-NDP-α-MSH (PerkinElmer Life Sciences catalog No. AD0225) with determination by time-resolved fluorometry (TRF) of the lanthanide chelate. […] After incubation for 90 minutes at 37° C., the reaction was stopped by filtration over AcroWell 96-well filter plates (Pall Life Sciences). The filter plates were washed 4 times with 200 μL of ice-cold phosphate-buffered saline. DELFIA Enhancement solution (PerkinElmer Life Sciences) was added to each well. […] Each assay was conducted in duplicate and mean values were utilized. Ki values were determined by curve-fitting with Graph-Pad Prism® software using a one-site fixed-slope competition binding model.

Row | Ki [nM] | Compound
2 | 1 | CC(=O)N[C@@H](CCCNC(=N)N)C(=O)N[C@H]1CCC(=O)NCCC[C@@H](C(=O)NC2CC2)NC(=O)[C@H](Cc2c[nH]c3ccccc23)NC(=O)[C@H](CCCNC(=N)N)NC(=O)[C@@H](Cc2ccccc2)NC(=O)[C@H](Cc2c[nH]cn2)NC1=O [compound 110, Ac-Arg-cyclo(Glu-His- D-Phe-Arg-Trp-Orn)- NH-cyclopropyl] (HELM PEPTIDE1{[ac].R.E.H.[dF].R.W.[Orn].[C1CC1N[*:1]]}$PEPTIDE1,PEPTIDE1,3:R3-8:R3$$$V2.0)
3 | 2 | CC(=O)N[C@H](CCCNC(=N)N)C(=O)N[C@H]1CC(=O)NCCCC[C@@H](C(N)=O)NC(=O)[C@H](Cc2c[nH]c3ccccc23)NC(=O)[C@H](CCCNC(=N)N)NC(=O)[C@@H](Cc2ccccc2)NC(=O)[C@@H]2C[C@@H](Cc3ccccc3)CN2C1=O [compound 72, Ac-D-Arg-cyclo(Asp- Pro(4R-Bzl)-D-Phe-Arg- Trp-Lys)-NH2]
4 | 8 | CC(=O)N[C@@H](CCCNC(=N)N)C(=O)N[C@H]1CC(=O)NCCCC[C@@H](C(N)=O)NC(=O)[C@H](Cc2c[nH]c3ccccc23)NC(=O)[C@H](CCCNC(=N)N)NC(=O)[C@@H](Cc2ccccc2)NC(=O)[C@@H]2C[C@@H](Cc3ccccc3Cl)CN2C1=O [compound 123, Ac-Arg-cyclo(Asp- Pro(4R-2-Cl-Bzl)-D- Phe-Arg-Trp-Lys)-NH2]
5 | 88 | CC(=O)NC[C@@H]1NC(=O)[C@@H](NC(=O)[C@H](CCCNC(=N)N)NC(C)=O)CC(=O)NCCCC[C@@H](C(N)=O)NC(=O)[C@H](Cc2c[nH]c3ccccc23)NC(=O)[C@H](CCCNC(=N)N)NC(=O)[C@@H](Cc2ccccc2)NC1=O [compound 114, Ac-Arg-cyclo(Asp- Dab(Acetyl)-D-Phe-Arg- Trp-Lys)-NH2]
6 | 6 | CCNC(=O)[C@@H]1CCCNC(=O)CC[C@H](NC(=O)[C@H](CCCNC(=N)N)NC(C)=O)C(=O)N[C@@H](Cc2c[nH]cn2)C(=O)N[C@H](Cc2ccccc2)C(=O)N[C@@H](CCCNC(=N)N)C(=O)N[C@@H](Cc2c[nH]c3ccccc23)C(=O)N1 [compound 109, Ac-Arg-cyclo(Glu-His- D-Phe-Arg-Trp-Orn)- NH-Et] (HELM PEPTIDE1{[ac].R.E.H.[dF].R.W.[Orn].[CCN[*:1]]}$PEPTIDE1,PEPTIDE1,3:R3-8:R3$$$V2.0)
7 | 1 | CC(=O)N[C@@H](CCCNC(=N)N)C(=O)N[C@H]1CCCCNC(=O)C[C@@H](C(N)=O)NC(=O)[C@H](Cc2c[nH]c3ccccc23)NC(=O)[C@H](CCCNC(=N)N)NC(=O)[C@@H](Cc2ccccc2)NC(=O)[C@H](Cc2c[nH]cn2)NC1=O [compound 96, Ac-Arg-cyclo(Lys-His- D-Phe-Arg-Trp-Asp)- NH2] (HELM PEPTIDE1{[ac].R.K.H.[dF].R.W.D.[am]}$PEPTIDE1,PEPTIDE1,3:R3-8:R3$$$V2.0; bridges inferred)

Second part, the molecule before the results:

Row | Compound | Ki [nM]
8 | CC(=O)N[C@@H](CCCNC(=N)N)C(=O)N[C@H]1CC(=O)NCCCC[C@@H](C(N)=O)NC(=O)[C@H](Cc2c[nH]c3ccccc23)NC(=O)[C@H](CCCNC(=N)N)NC(=O)[C@@H](Cc2ccccc2)NC(=O)[C@@H]2C[C@@H](Cc3ccccc3)CN2C1=O [compound 18, Ac-Arg-cyclo(Asp- Pro(4R-Bzl)-D-Phe-Arg- Trp-Lys)-NH2] | 3
9 | CC(=O)N[C@@H](CCCNC(=N)N)C(=O)N[C@H]1CC(=O)NCCCC[C@@H](C(N)=O)NC(=O)[C@H](Cc2c[nH]c3ccccc23)NC(=O)[C@H](CCCCN)NC(=O)[C@@H](Cc2ccccc2)NC(=O)[C@H](C)NC1=O [compound 8, Ac-Arg-cyclo(Asp-Ala- D-Phe-Lys-Trp-Lys)- NH2] (HELM PEPTIDE1{[ac].R.D.A.[dF].K.W.K.[am]}$PEPTIDE1,PEPTIDE1,3:R3-8:R3$$$V2.0) | 3020
10 | CC(=O)N[C@@H](CCCNC(=N)N)C(=O)N[C@H]1CC(=O)NCCCC[C@@H](C(N)=O)NC(=O)[C@H](Cc2c[nH]c3ccccc23)NC(=O)[C@H](CCCNC(=N)N)NC(=O)[C@@H](Cc2ccccc2)NC(=O)[C@H](CN)NC1=O [compound 62, Ac-Arg-cyclo(Asp-Dap- D-Phe-Arg-Trp-Lys)- NH2] | 80
11 | CC(=O)N[C@@H](CCCNC(=N)N)C(=O)N[C@H]1CC(=O)NCCCC[C@@H](C(N)=O)NC(=O)[C@H](Cc2c[nH]c3ccccc23)NC(=O)[C@H](CCCNC(=N)N)NC(=O)[C@@H](Cc2ccccc2)NC(=O)[C@@H]2C[C@@H](OCc3ccccc3)CN2C1=O [compound 15, Ac-Arg-cyclo(Asp- Hyp(Bzl)-D-Phe-Arg- Trp-Lys)-NH2] | 0.7
12 | CC(=O)N[C@@H](CCCNC(=N)N)C(=O)N[C@H]1CC(=O)NCCCC[C@@H](C(N)=O)NC(=O)[C@H](Cc2c[nH]c3ccccc23)NC(=O)[C@H](CCCNC(=N)N)NC(=O)[C@@](C)(Cc2ccccc2)NC(=O)[C@H](Cc2c[nH]cn2)NC1=O [compound 60, Ac-Arg-cyclo(Asp-His- D-(alpha-Me)Phe-Arg- Trp-Lys)-NH2] | 47
13 | CC(=O)N[C@H](CCCCN)C(=O)N[C@H]1CCCNC(=O)CC[C@@H](C(N)=O)NC(=O)[C@H](Cc2c[nH]c3ccccc23)NC(=O)[C@H](CCCNC(=N)N)NC(=O)[C@@H](Cc2ccccc2)NC(=O)[C@H](Cc2c[nH]cn2)NC1=O [compound 133, Ac-D-Lys-cyclo(Orn- His-D-Phe-Arg-Trp- Glu)-NH2] | 8
14 | CC(=O)N[C@@H](CCCNC(=N)N)C(=O)N[C@H]1CC(=O)NCCCC[C@@H](C(N)=O)NC(=O)[C@H](Cc2c[nH]c3ccccc23)NC(=O)[C@H](CCCNC(=N)N)NC(=O)[C@@H](Cc2ccccc2)NC(=O)[C@H](CCCNC(=N)N)NC1=O [compound 28, Ac-Arg-cyclo(Asp-Arg- D-Phe-Arg-Trp-Lys)- NH2] | 4
15 | CC(=O)N[C@@H](CCCNC(=N)N)C(=O)N[C@H]1CC(=O)NCCCC[C@@H](C(N)=O)NC(=O)[C@H](Cc2c[nH]c3ccccc23)NC(=O)[C@H](CCCNC(=N)N)NC(=O)[C@@H](Cc2ccccc2)NC(=O)[C@H](Cc2ccc(O)cc2)NC1=O [compound 11, Ac-Arg-cyclo(Asp-Tyr- D-Phe-Arg-Trp-Lys)- NH2] (HELM PEPTIDE1{[ac].R.D.Y.[dF].R.W.K.[am]}$PEPTIDE1,PEPTIDE1,3:R3-8:R3$$$V2.0) | 43
16 | CC(=O)N[C@@H](CCCNC(=N)N)C(=O)N[C@H]1CC(=O)NCCCC[C@@H](C(N)=O)NC(=O)[C@H](Cc2c[nH]c3ccccc23)NC(=O)[C@H](CCCCN)NC(=O)[C@@H](Cc2ccccc2)NC(=O)[C@H](CCCCN)NC1=O [compound 7, Ac-Arg-cyclo(Asp-Lys- D-Phe-Lys-Trp-Lys)- NH2] (HELM PEPTIDE1{[ac].R.D.K.[dF].K.W.K.[am]}$PEPTIDE1,PEPTIDE1,3:R3-8:R3$$$V2.0) | 2960
17 | CC(=O)N[C@@H](CCCNC(=N)N)C(=O)N[C@H]1CC(=O)NCCCC[C@@H](C(N)=O)NC(=O)[C@H](Cc2c[nH]c3ccccc23)NC(=O)[C@H](CCCNC(=N)N)NC(=O)[C@@H](Cc2ccccc2)NC(=O)[C@H](CC(C)C)NC1=O [compound 12, Ac-Arg-cyclo(Asp-Leu- D-Phe-Arg-Trp-Lys)- NH2] (HELM PEPTIDE1{[ac].R.D.L.[dF].R.W.K.[am]}$PEPTIDE1,PEPTIDE1,3:R3-8:R3$$$V2.0) | 33
18 | CC(=O)N[C@@H](CCCNC(=N)N)C(=O)N[C@H]1CC(=O)NCCCC[C@@H](C(N)=O)NC(=O)[C@H](Cc2c[nH]c3ccccc23)NC(=O)[C@H](CCCNC(=N)N)NC(=O)[C@@H](Cc2ccccc2)NC(=O)[C@H]([C@@H](C)O)NC1=O [compound 35, Ac-Arg-cyclo(Asp-Thr- D-Phe-Arg-Trp-Lys)- NH2] (HELM PEPTIDE1{[ac].R.D.T.[dF].R.W.K.[am]}$PEPTIDE1,PEPTIDE1,3:R3-8:R3$$$V2.0) | 140
19 | CSCC[C@@H]1NC(=O)[C@@H](NC(=O)[C@H](CCCNC(=N)N)NC(C)=O)CC(=O)NCCCC[C@@H](C(N)=O)NC(=O)[C@H](Cc2c[nH]c3ccccc23)NC(=O)[C@H](CCCNC(=N)N)NC(=O)[C@@H](Cc2ccccc2)NC1=O [compound 38, Ac-Arg-cyclo(Asp-Met- D-Phe-Arg-Trp-Lys)- NH2] (HELM PEPTIDE1{[ac].R.D.M.[dF].R.W.K.[am]}$PEPTIDE1,PEPTIDE1,3:R3-8:R3$$$V2.0) | 35
20 | CC(=O)N[C@H](CCCNC(=N)N)C(=O)N[C@H]1CC(=O)NCCCC[C@@H](C(N)=O)NC(=O)[C@H](Cc2c[nH]c3ccccc23)NC(=O)[C@H](CCCNC(=N)N)NC(=O)[C@@H](Cc2ccccc2)NC(=O)[C@H](C)NC1=O [compound 70, Ac-D-Arg-cyclo(Asp- Ala-D-Phe-Arg-Trp- Lys)-NH2] | 46

Source: patent US8846601B2, “Melanocortin receptor-specific peptides” (Palatin Technologies, Inc., priority 2009, dated 2014)
